Reference: ChEMBL document CHEMBL3885881, “DrugMatrix”

Species: Rattus norvegicus
Experiment: DrugMatrix - Regimen: Daily Repeat
Assay type: toxicity, organism-based, Sprague-Dawley
Parameters: regimen Daily Repeat, gender Male, age 6-8 weeks
Conditions: in vivo, po, route oral GAVAGE, vehicle .5 % CMC; for URIC ACID / ALANINE AMINOTRANSFERASE / ALBUMIN / ALKALINE PHOSPHATASE / ASPARTATE AMINOTRANSFERASE / BLOOD UREA NITROGEN / CARBON DIOXIDE / CHLORIDE / CHOLESTEROL / CREATINE PHOSPHOKINASE / CREATININE / GLUCOSE / LACTATE DEHYDROGENASE / LIPASE / PHOSPHORUS / POTASSIUM / SODIUM / TOTAL BILIRUBIN / TOTAL PROTEIN: tissue Plasma; for ABSOLUTE BASOPHIL / ABSOLUTE EOSINOPHIL / ABSOLUTE LYMPHOCYTE / ABSOLUTE MONOCYTE / ABSOLUTE SEGMENTED NEUTROPHIL / BASOPHIL / EOSINOPHIL / ERYTHROCYTE COUNT / HEMATOCRIT / HEMOGLOBIN / LEUKOCYTE COUNT / LYMPHOCYTE / MEAN CORPUSCULAR HEMOGLOBIN / MEAN CORPUSCULAR HEMOGLOBIN CONCENTRATION / MONOCYTE / NEUTROPHIL / NUCLEATED RED BLOOD CELLS / PLATELET COUNT: tissue Blood
[1] = 10 mg/kg, 120 h, dose level Low, time 5 day
[2] = 269 mg/kg, 72 h, dose level High, time 3 day
[3] = 269 mg/kg, 120 h, dose level High, time 5 day

O=C1C(CC[S+]([O-])c2ccccc2)C(=O)N(c2ccccc2)N1c1ccccc1 (stereo unspecified) [SULFINPYRAZONE]
URIC ACID (10 mg/kg, 72 h, dose level Low, time 3 day): 2 mg/dL | ABSOLUTE BASOPHIL [1]: 0 CELLS/uL | ABSOLUTE EOSINOPHIL [1]: 0 CELLS/uL | ABSOLUTE LYMPHOCYTE [1]: 8238.33 CELLS/uL | ABSOLUTE MONOCYTE [1]: 0 CELLS/uL | ABSOLUTE SEGMENTED NEUTROPHIL [1]: 761.67 CELLS/uL | BASOPHIL [1]: 0% | EOSINOPHIL [1]: 0% | ERYTHROCYTE COUNT [1]: 5.27 x10E6/uL | HEMATOCRIT [1]: 33.27% | HEMOGLOBIN [1]: 13.03 G/DL | LEUKOCYTE COUNT [1]: 9 x10E3/uL | LYMPHOCYTE [1]: 91.67% | MEAN CORPUSCULAR HEMOGLOBIN [1]: 24.77 pg | MEAN CORPUSCULAR HEMOGLOBIN CONCENTRATION [1]: 39.17 G/DL | MONOCYTE [1]: 0% | NEUTROPHIL [1]: 8.33% | NUCLEATED RED BLOOD CELLS [1]: 0 /100WBC | PLATELET COUNT [1]: 1182 x10E3/uL | ALANINE AMINOTRANSFERASE [1]: 51.33 u/L | ALBUMIN [1]: 4.23 G/DL | ALKALINE PHOSPHATASE [1]: 307 u/L | ASPARTATE AMINOTRANSFERASE [1]: 86.67 u/L | BLOOD UREA NITROGEN [1]: 15.33 mg/dL | CARBON DIOXIDE [1]: 30 mmol/L | CHLORIDE [1]: 102 MEQ/L | CHOLESTEROL [1]: 63.67 mg/dL | CREATINE PHOSPHOKINASE [1]: 204 u/L | CREATININE [1]: 0.19 mg/dL | GLUCOSE [1]: 139.33 mg/dL | LACTATE DEHYDROGENASE [1]: 126 u/L | LIPASE [1]: 9 u/L | PHOSPHORUS [1]: 11.67 mg/dL | POTASSIUM [1]: 6.44 MEQ/L | SODIUM [1]: 148.53 MEQ/L | TOTAL BILIRUBIN [1]: 0.27 mg/dL | TOTAL PROTEIN [1]: 6.3 G/DL | URIC ACID [1]: 1 mg/dL | ABSOLUTE BASOPHIL [2]: 0 CELLS/uL | ABSOLUTE EOSINOPHIL [2]: 0 CELLS/uL | ABSOLUTE LYMPHOCYTE [2]: 15229.67 CELLS/uL | ABSOLUTE MONOCYTE [2]: 176.67 CELLS/uL | ABSOLUTE SEGMENTED NEUTROPHIL [2]: 1627 CELLS/uL | BASOPHIL [2]: 0% | EOSINOPHIL [2]: 0% | ERYTHROCYTE COUNT [2]: 4.48 x10E6/uL | HEMATOCRIT [2]: 28.7% | HEMOGLOBIN [2]: 11.63 G/DL | LEUKOCYTE COUNT [2]: 17.03 x10E3/uL | LYMPHOCYTE [2]: 89.67% | MEAN CORPUSCULAR HEMOGLOBIN [2]: 26.03 pg | MEAN CORPUSCULAR HEMOGLOBIN CONCENTRATION [2]: 40.6 G/DL | MONOCYTE [2]: 1% | NEUTROPHIL [2]: 9.33% | NUCLEATED RED BLOOD CELLS [2]: 0 /100WBC | PLATELET COUNT [2]: 1194 x10E3/uL | ALBUMIN [2]: 3.87 G/DL | ALKALINE PHOSPHATASE [2]: 319.33 u/L | ASPARTATE AMINOTRANSFERASE [2]: 92.67 u/L | BLOOD UREA NITROGEN [2]: 16 mg/dL | CARBON DIOXIDE [2]: 21.33 mmol/L | CHLORIDE [2]: 105.67 MEQ/L | CHOLESTEROL [2]: 78.67 mg/dL | CREATINE PHOSPHOKINASE [2]: 438 u/L | CREATININE [2]: 0.18 mg/dL | GLUCOSE [2]: 147 mg/dL | LACTATE DEHYDROGENASE [2]: 291 u/L | LIPASE [2]: 10.33 u/L | PHOSPHORUS [2]: 11.97 mg/dL | POTASSIUM [2]: 6.1 MEQ/L | SODIUM [2]: 145.03 MEQ/L | TOTAL BILIRUBIN [2]: 0.23 mg/dL | TOTAL PROTEIN [2]: 5.5 G/DL | URIC ACID [2]: 1.4 mg/dL | ABSOLUTE BASOPHIL [3]: 0 CELLS/uL | ABSOLUTE EOSINOPHIL [3]: 0 CELLS/uL | ABSOLUTE LYMPHOCYTE [3]: 20046 CELLS/uL | ABSOLUTE MONOCYTE [3]: 55 CELLS/uL | ABSOLUTE SEGMENTED NEUTROPHIL [3]: 2899 CELLS/uL | BASOPHIL [3]: 0% | EOSINOPHIL [3]: 0% | ERYTHROCYTE COUNT [3]: 5.28 x10E6/uL | HEMATOCRIT [3]: 32.4% | HEMOGLOBIN [3]: 13.17 G/DL | LEUKOCYTE COUNT [3]: 23 x10E3/uL | LYMPHOCYTE [3]: 87.33% | MEAN CORPUSCULAR HEMOGLOBIN [3]: 24.9 pg | MEAN CORPUSCULAR HEMOGLOBIN CONCENTRATION [3]: 40.63 G/DL | MONOCYTE [3]: 0.33% | NEUTROPHIL [3]: 12.33% | NUCLEATED RED BLOOD CELLS [3]: 0 /100WBC | PLATELET COUNT [3]: 1314.67 x10E3/uL | ALANINE AMINOTRANSFERASE [3]: 59.33 u/L | ALBUMIN [3]: 4.13 G/DL | ALKALINE PHOSPHATASE [3]: 291.33 u/L | ASPARTATE AMINOTRANSFERASE [3]: 70.33 u/L | BLOOD UREA NITROGEN [3]: 15 mg/dL | CARBON DIOXIDE [3]: 26.67 mmol/L | CHLORIDE [3]: 102.33 MEQ/L | CHOLESTEROL [3]: 77 mg/dL | CREATINE PHOSPHOKINASE [3]: 224.33 u/L | CREATININE [3]: 0.25 mg/dL | GLUCOSE [3]: 143.67 mg/dL | LACTATE DEHYDROGENASE [3]: 78.33 u/L | LIPASE [3]: 9 u/L | PHOSPHORUS [3]: 12.43 mg/dL | POTASSIUM [3]: 6.73 MEQ/L | SODIUM [3]: 147 MEQ/L | TOTAL BILIRUBIN [3]: 0.23 mg/dL | TOTAL PROTEIN [3]: 6 G/DL | URIC ACID [3]: 1.53 mg/dL
